In patent US7884136B2, “Modified-release formulations of a bupropion salt” (Biovail Laboratories International S.R.L., priority 2005, dated 2011):

Assay: Shelf life stability program of bupropion HBr, 25° C./60% RH, 3 and 6 months, HPLC
Assay type: physicochemical
Settings: 25° C., R.H. 60%; for Chromatographic purity B) (HPLC) 4) 2-N-(tert-Butyl)-aminopropiophenone / Chromatographic purity B) (HPLC) 5) single unknown impurity (each): LOQ 0.02%, LOD 0.002%; for Chromatographic purity A) (HPLC) 1) 3′-Chloropropiophenone / Chromatographic purity A) (HPLC) 3) 3′-Chlorobenzoic acid / Chromatographic purity A) (HPLC) 2) 3′-Chloro-2-bromopropiophenone: LOQ 0.05%; for Chromatographic purity A) (HPLC) 1) 3′-Chloropropiophenone / Chromatographic purity A) (HPLC) 3) 3′-Chlorobenzoic acid: LOD 0.01%; for Chromatographic purity A) (HPLC) 2) 3′-Chloro-2-bromopropiophenone: LOD 0.04%
Procedure: The stability of bupropion HBr was studied over a longer term under conditions meant to approximate standard storage or shelf conditions. Samples were prepared in closed containers and subjected to long-term storage at 25° C.+2° C. and 60%+5% RH in a stability chamber. The samples were analyzed by HPLC prior to being placed in the stability chamber (time 0) and after 3 months and 6 months. The amounts of the main degradation products present at time 0 were compared with the amounts present at 3 months and 6 months. As shown in Table 77-79 three different batches of bupropion HBr were tested. As in Example 10 each sample was tested under two HPLC assay conditions to identify 6 impurities or groups of impurities as described in Example 10.

Compound: Br.CC(NC(C)(C)C)C(=O)c1cccc(Cl)c1 (stereo not drawn) [Bupropion•HBr]
- Assay (HPLC) (Batch D00895, 6 months): 100.1 % on d.b.
- Chromatographic purity (HPLC: A + B) Total impurities (Batch D00895, 6 months): 0.1%
- Chromatographic purity B) (HPLC) 6) total unknown impurities (Batch D00895, 6 months): 6) 0.02%
- Description (white or almost white crystalline powder) (Batch D00895, 6 months): conform
- Identification IR, HPLC (Batch D00895, 6 months): positive
- Water content (K.F.) (Batch D00895, 6 months): 0.05%
- Chromatographic purity B) (HPLC) 4) 2-N-(tert-Butyl)-aminopropiophenone (Batch D00895, 6 months): 4) 0.05%
- Chromatographic purity B) (HPLC) 5) single unknown impurity (each) (Batch D00895, 6 months): 5) n.q.
- Chromatographic purity A) (HPLC) 1) 3′-Chloropropiophenone (Batch D00895, 6 months): 1) 0.05%
- Chromatographic purity A) (HPLC) 3) 3′-Chlorobenzoic acid (Batch D00895, 6 months): 3) n.q.
- Chromatographic purity A) (HPLC) 2) 3′-Chloro-2-bromopropiophenone (Batch D00895, 6 months): 2) n.d.
- Assay (HPLC) (Batch D00895, 9 months): 99.4 % on d.b.
- Chromatographic purity (HPLC: A + B) Total impurities (Batch D00895, 9 months): n.q.
- Chromatographic purity B) (HPLC) 6) total unknown impurities (Batch D00895, 9 months): 6) n.q.
- Description (white or almost white crystalline powder) (Batch D00895, 9 months): conform
- Identification IR, HPLC (Batch D00895, 9 months): positive
- Water content (K.F.) (Batch D00895, 9 months): 0.05%
- Chromatographic purity B) (HPLC) 4) 2-N-(tert-Butyl)-aminopropiophenone (Batch D00895, 9 months): 4) n.d.
- Chromatographic purity B) (HPLC) 5) single unknown impurity (each) (Batch D00895, 9 months): 5) n.q.
- Chromatographic purity A) (HPLC) 1) 3′-Chloropropiophenone (Batch D00895, 9 months): 1) n.q.
- Chromatographic purity A) (HPLC) 3) 3′-Chlorobenzoic acid (Batch D00895, 9 months): 3) n.q.
- Chromatographic purity A) (HPLC) 2) 3′-Chloro-2-bromopropiophenone (Batch D00895, 9 months): 2) n.d.
- Assay (HPLC) (Batch D00895, 12 months): 99.4 % on d.b.
- Chromatographic purity (HPLC: A + B) Total impurities (Batch D00895, 12 months): 0.2%
- Chromatographic purity B) (HPLC) 6) total unknown impurities (Batch D00895, 12 months): 6) 0.07%
- Description (white or almost white crystalline powder) (Batch D00895, 12 months): conform
- Identification IR, HPLC (Batch D00895, 12 months): positive
- Water content (K.F.) (Batch D00895, 12 months): 0.04%
- Chromatographic purity B) (HPLC) 4) 2-N-(tert-Butyl)-aminopropiophenone (Batch D00895, 12 months): 4) 0.05%
- Chromatographic purity B) (HPLC) 5) single unknown impurity (each) (Batch D00895, 12 months): 5) 0.07%
- Chromatographic purity A) (HPLC) 1) 3′-Chloropropiophenone (Batch D00895, 12 months): 1) n.d.
- Chromatographic purity A) (HPLC) 3) 3′-Chlorobenzoic acid (Batch D00895, 12 months): 3) 0.05%
- Chromatographic purity A) (HPLC) 2) 3′-Chloro-2-bromopropiophenone (Batch D00895, 12 months): 2) n.d.
- Assay (HPLC) (Batch D00895, time 0): 99.2 % on d.b.
- Chromatographic purity (HPLC: A + B) Total impurities (Batch D00895, time 0): 0.1%
- Chromatographic purity B) (HPLC) 6) total unknown impurities (Batch D00895, time 0): 6) 0.04%
- Description (white or almost white crystalline powder) (Batch D00895, time 0): conform
- Identification IR, HPLC (Batch D00895, time 0): positive
- Water content (K.F.) (Batch D00895, time 0): 0.04%
- Chromatographic purity B) (HPLC) 4) 2-N-(tert-Butyl)-aminopropiophenone (Batch D00895, time 0): 4) 0.04%
- Chromatographic purity B) (HPLC) 5) single unknown impurity (each) (Batch D00895, time 0): 5) 0.04%
- Chromatographic purity A) (HPLC) 1) 3′-Chloropropiophenone (Batch D00895, time 0): 1) n.d.
- Chromatographic purity A) (HPLC) 3) 3′-Chlorobenzoic acid (Batch D00895, time 0): 3) n.q.
- Chromatographic purity A) (HPLC) 2) 3′-Chloro-2-bromopropiophenone (Batch D00895, time 0): 2) n.d.
- Assay (HPLC) (Batch D00896, 3 months): 99.4 % on d.b.
- Chromatographic purity (HPLC: A + B) Total impurities (Batch D00896, 3 months): 0.1%
- Chromatographic purity B) (HPLC) 6) total unknown impurities (Batch D00896, 3 months): 6) 0.05%
- Description (white or almost white crystalline powder) (Batch D00896, 3 months): conform
- Identification IR, HPLC (Batch D00896, 3 months): positive
- Water content (K.F.) (Batch D00896, 3 months): 0.04%
- Chromatographic purity B) (HPLC) 4) 2-N-(tert-Butyl)-aminopropiophenone (Batch D00896, 3 months): 4) 0.03%
- Chromatographic purity B) (HPLC) 5) single unknown impurity (each) (Batch D00896, 3 months): 5) 0.04%
- Chromatographic purity A) (HPLC) 1) 3′-Chloropropiophenone (Batch D00896, 3 months): 1) n.q.
- Chromatographic purity A) (HPLC) 3) 3′-Chlorobenzoic acid (Batch D00896, 3 months): 3) n.q.
- Chromatographic purity A) (HPLC) 2) 3′-Chloro-2-bromopropiophenone (Batch D00896, 3 months): 2) n.d.
- Assay (HPLC) (Batch D00896, 6 months): 100.5 % on d.b.
- Chromatographic purity (HPLC: A + B) Total impurities (Batch D00896, 6 months): 0.1%
- Chromatographic purity B) (HPLC) 6) total unknown impurities (Batch D00896, 6 months): 6) n.q.
- Description (white or almost white crystalline powder) (Batch D00896, 6 months): conform
- Identification IR, HPLC (Batch D00896, 6 months): positive
- Water content (K.F.) (Batch D00896, 6 months): 0.04%
- Chromatographic purity B) (HPLC) 4) 2-N-(tert-Butyl)-aminopropiophenone (Batch D00896, 6 months): 4) 0.04%
- Chromatographic purity B) (HPLC) 5) single unknown impurity (each) (Batch D00896, 6 months): 5) n.q.
- Chromatographic purity A) (HPLC) 1) 3′-Chloropropiophenone (Batch D00896, 6 months): 1) 0.05%
- Chromatographic purity A) (HPLC) 3) 3′-Chlorobenzoic acid (Batch D00896, 6 months): 3) n.q.
- Chromatographic purity A) (HPLC) 2) 3′-Chloro-2-bromopropiophenone (Batch D00896, 6 months): 2) n.d.
